According to PubChem BioAssay (NCI):
Values joined by “and” are separate entries in the source; they are usually repeats but may differ in a detail not shown here. Identical values can stand only once.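 Following 48 hours of exposure in 96-well plates, responses at five concentrations were used to interpolate endpoints linearly. GI50 is the concentration that inhibits growth by half. TGI denotes the concentration required for complete inhibition of growth.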

Assays:
Assay in all cases: NCI tumour cell line growth inhibition, 48 h
NCI-H522 lung = system: NCI-H522 lung
MOLT-4 leukemia = system: MOLT-4 leukemia
OVCAR-5 ovarian = system: OVCAR-5 ovarian
SR leukemia = system: SR leukemia
HOP-62 NSCLC = system: HOP-62 NSCLC
HCC-2998 colon = system: HCC-2998 colon
PC-3 prostate = system: PC-3 prostate
DMS 273 small cell lung = system: DMS 273 small cell lung
DMS 114 small cell lung = system: DMS 114 small cell lung
SNB-78 CNS = system: SNB-78 CNS

Compound | GI50 (NCI-H522 lung) [µM] | TGI (NCI-H522 lung) | GI50 (MOLT-4 leukemia) [µM] | TGI (MOLT-4 leukemia) [µM] | GI50 (OVCAR-5 ovarian) [µM] | TGI (OVCAR-5 ovarian) [µM] | GI50 (SR leukemia) [µM] | TGI (SR leukemia) [µM] | GI50 (HOP-62 NSCLC) [µM] | TGI (HOP-62 NSCLC) [µM] | GI50 (HCC-2998 colon) [µM] | TGI (HCC-2998 colon) | GI50 (PC-3 prostate) [µM] | TGI (PC-3 prostate) [µM] | GI50 (DMS 273 small cell lung) [µM] | TGI (DMS 273 small cell lung) [µM] | GI50 (DMS 114 small cell lung) [µM] | TGI (DMS 114 small cell lung) [µM] | GI50 (SNB-78 CNS) [µM] | TGI (SNB-78 CNS) [µM]
COc1ccc(C(=O)/C=C/c2cccnc2Nc2cc(OC)c(OC)c(OC)c2)cc1 | 0.93 | 2.65 µM | 2.26 | 7.64 | 3.36 | 10 | 0.0949 | 2.43 | 2.19 | 12.7 | 1.35 | 2.85 µM | 1.53 | 10.1 | – | – | – | – | – | –
COC(=O)c1cc2c(c(C(=O)OC)c1O)C(=O)C=CC2=O | 3.01 | 9.1 µM and > 26.9 µM | – | > 21.5 | – | > 54.6 | – | > 22 | > 9.1 | > 93.4 | > 9.1 | > 57.4 µM | – | – | > 9.1 | > 71.6 | > 9.1 | > 78.8 | > 9.1 | > 66.8
CC#CC(=O)Nc1ccccc1CC(c1c[nH]c2ccccc12)c1c[nH]c2ccccc12 | – | – | – | 44.6 | – | – | – | – | – | 35.9 | – | 32.7 µM | – | – | – | 32.7 | – | 29.9 | – | 46.1
CN(C)C(=S)/N=c1\ss/c(=N\C(=S)N(C)C)n1-c1ccc2c(c1)OCO2 | – | > 100 µM | – | – | – | > 100 | – | > 100 | – | > 100 | – | > 100 µM | – | – | – | > 100 | – | > 100 | – | –
CCCNC(=S)N/N=C(\C)c1ccccn1 | 3.22 | > 100 µM | 0.0524 | 0.816 | 0.529 | > 100 | 0.0517 | 4.37 | 0.517 | 17.6 | 0.523 | > 100 µM | 0.0471 | > 100 | – | – | – | – | – | –
CCOC(=O)NC(=O)c1cn(CCCOC(=O)NCCCCCCNC(=O)OCCCn2c(=O)c(C(=O)NC(=O)OCC)cn(C)c2=O)c(=O)n(C)c1=O | – | > 100 µM | – | > 100 | – | > 100 | – | – | – | – | – | > 100 µM | – | – | – | > 100 | – | > 100 | – | –
O=C1C2=C(CC3C(C2)C3(Br)Br)C(=O)C2=C1CC1C(C2)C1(Br)Br (stereo not drawn) | – | > 100 µM | – | > 100 | – | > 100 | – | > 100 | – | > 100 | – | > 100 µM | – | – | – | > 100 | – | – | – | > 100
Cc1cc(C2CCCCC2)n(O)c(=O)c1 | 4.8 | 49.9 µM and 35.2 µM | – | > 100 | 6.13 | > 100 | 0.66 | > 100 | 0.913 | 40 | 2.94 | > 100 µM and 35.5 µM | 3.02 | > 100 | – | – | – | > 100 | – | –
CCC(C)(O)c1cn(-c2cccc(S(=O)(=O)O)c2)nn1 (stereo not drawn) | – | > 100 µM | – | > 100 | – | > 100 | – | > 100 | – | > 100 | – | > 100 µM | – | – | – | > 100 | – | > 100 | – | > 100
CC(=O)c1ccc(NC(=O)/C(Cc2ccccn2)=N/NC(=O)C[N+](C)(C)C)cc1 | – | > 100 µM | – | > 100 | – | > 100 | – | > 100 | – | > 100 | – | > 100 µM | – | – | – | > 100 | – | > 100 | – | > 100
Cc1[nH]c(N=Nc2ccccc2)nc1N=Nc1ccccc1 | 2.69 | > 34.5 µM | 2.32 | > 41.7 | 6.62 | > 82.2 | 0.418 | – | 4.09 | 17.1 | 4.2 | 29.6 µM | 4.99 | > 51.6 | – | – | – | – | – | –
CC(C)=CC(=O)N1CCN(C(=O)C=C(C)C)CC1 | – | > 100 µM | – | > 100 | – | > 100 | – | > 100 | – | > 100 | – | > 100 µM | – | – | – | > 100 | – | > 100 | – | > 100
CCC1(O)C(=O)OCc2c1cc1n(c2=O)Cc2cc3c(N)cccc3nc2-1 (stereo not drawn) | 0.0231 | 0.763 µM | – | 0.014 | 0.106 | 2.67 | – | < 0.0114 | – | 0.0748 | – | 2.58 µM | – | > 100 | – | 0.209 | – | 0.504 | – | > 51.7
O=C(O)c1cc(N=Nc2ccc([As](=O)(O)O)cc2)ccc1O | – | > 100 µM | – | > 100 | – | > 100 | – | > 100 | – | > 100 | – | > 100 µM | – | > 100 | – | – | – | – | – | –
COc1ccc(/C(=N/Nc2ccc([N+](=O)[O-])cc2)Sc2cc(Cl)c(C)cc2S(N)(=O)=O)cc1 | 13.1 | 38.1 µM | 5.02 | 16.5 | 7.59 | 19.2 | 2.17 | 5.41 | 5.94 | 16.4 | 4.29 | 8.75 µM | 5.2 | 17.6 | – | – | – | – | – | –
CC(=O)NC(CCCN)C(=O)NCc1ccccc1 (stereo not drawn) | – | > 100 µM | – | > 100 | – | > 100 | – | – | – | > 100 | – | > 100 µM | – | – | – | > 100 | – | > 100 | – | > 100
COc1ccc(OC)c(/C=C/NC=O)c1 | – | > 100 µM | – | > 100 | – | > 100 | – | > 31.6 | – | > 100 | – | > 100 µM | – | > 100 | – | > 100 | – | > 100 | – | > 100
C[C@]12CC[C@@H]3c4ccc(O)cc4CC[C@H]3[C@@H]1CC[C@@H]2NS(=O)(=O)c1ccc(C(F)(F)F)cc1 | 1.69 | 3.85 µM | 2.61 | 12.7 | 1.7 | 3.26 | 2.43 | 7.5 | 2 | 3.7 | 2.11 | 4.37 µM | 1.99 | 5.24 | – | – | – | – | – | –
COC(=O)[C@]12CCC(C)(C)C[C@H]1C1=CC[C@@H]3[C@@]4(C)C/C(=C/c5cccnc5)C(=O)C(C)(C)[C@@H]4CC[C@@]3(C)[C@]1(C)CC2 | 8.58 | 28.7 µM | 2.12 | 6.17 | 14.1 | 38.2 | 4.52 | 93.6 | 13.6 | 67 | 5.56 | 19.5 µM | 2.37 | 10.4 | – | – | – | – | – | –
